Measured values reported in US6387388B1, “Pesticidal formulation” (Merck & Co., Inc., priority 1995, dated 2002).
“Also recorded” adds a separate entry of the source.

How the values were obtained:
[1] = system: tomato fruitworm (Helicoverpa zea); assay: Field efficacy study, weekly foliar sprays on tomato; type: in vivo
Source text: ‘Roma’ tomato transplants were planted in the field on June 10. Each plot was one row (5 ft centers) by 20 feet (=0.0022957 acre). Plots were separated within rows by at least 6 feet of unplanted ground and across rows by 24 feet. A single row of sweet corn (‘Silver Queen’) was planted mid-way between rows. Weeds are allowed to grow in the ground between the tomato and sweet corn rows, but were kept mowed. Weeds were controlled within tomato rows by a single application of Sencor 75 DF applied as a directed spray at the rate of 0.5 lb a.i./acre on June 20. Foliar applications of Dithane M45 at 1.5 lb a.i./acre were made every 5 days beginning July 1 and continuing through harvest for control of foliar diseases. In addition, calcium nitrate at 4 lb/acre was applied on July 10, 17, 24 and 31 for control of blossom-end rot. All insecticide treatments were applied as foliar sprays on July 23, 30, August 6, and 13. Applications were made using a CO2-powered, backpack sprayer calibrated to deliver 55 gallons of spray per acre at 42 psi. […]
The experimental treatments were replicated 4 times in a randomized complete block experimental design. The incidence of fruitworm damage to the fruit was determined in each plot on August 11, when the first fruit reached market maturity, and again on August 16. […]

[2] = soluble in 1 liter of water; cited from earlier work
[3] = system: eye of a rabbit; assay: Neat emamectin benzoate, acute ocular irritation study in rabbits; type: in vivo, albino rabbits (New Zealand white)
Experimental: Three male and three female albino rabbits (New Zealand white) 25 to 26 weeks of age and weighing 3.23 to 3.66 kg was used in this study. The test compound was ground into a fine powder and a volume of 0.1 cc (approximately 28 mg) was placed in the conjunctival sac of the left eye of each rabbit. Immediately after administration, the eyelids of the treated eye were held together for one second to prevent loss of material and released. The right eye was used as an untreated control.
Ocular examinations were made recorded at 1, 24, 48 and 72 hours post-instillation in all rabbits and were scored by the Draize Method (J. Pharmacol. Exp. Therap. 82:377-390 (1944)). Because of severe ocular reactions, three rabbits were euthanized following the 72-hour reading. Scores were recorded for the three remaining rabbits once daily through 14 days post-instillation except on weekends.

CC(C)[C@H](C(=O)O[C@H](C#N)c1cccc(Oc2ccccc2)c1)c1ccc(Cl)cc1 [esfenvalerate]
overall mean percentage of damaged fruit ([1]; tomato, Asana XL 0.66 EC at 0.036 lb active ingredient per acre, applied weekly, untreated control 18.5%): 0.0%

COP(=O)(NC(C)=O)SC (stereo not drawn) [acephate]
amount soluble in water [2]: 650 g

benzoate salt of 4″-deoxy-4″-epi-methylamino avermectin B1a/B1b [emamectin benzoate]
ocular irritation rating ([3]; 0.1 cc (approximately 28 mg) fine powder in conjunctival sac, six rabbits, listed as neat emamectin benzoate): severely irritating; also recorded: severe, irreversible eye irritant | ocular reactions in the three rabbits euthanized early, through 72 hours ([3]; approximately 28 mg in conjunctival sac): chemosis became severe | ocular reactions at one hour ([3]; approximately 28 mg in conjunctival sac, six rabbits, listed as neat emamectin benzoate): the eyes of four rabbits had congestion of the iris; also recorded: corneal anesthesia and conjunctival irritation; also recorded: moderate redness, slight or moderate chemosis and severe colorless discharge | ocular reactions at 24 hours ([3]; approximately 28 mg in conjunctival sac, listed as neat emamectin benzoate): an additional rabbit had congestion of the iris; also recorded: very slight corneal opacity covering less than ¼ of the corneal surface; also recorded: corneal anesthesia was still present, redness was severe, chemosis was never more than moderate | body weight loss ([3]; rabbits euthanized early): less than 7% | corneal anesthesia lasted through ([3]; two of the three remaining rabbits): 72 h

CC1(C)[C@H](C(=O)O[C@H](C#N)c2cccc(Oc3ccccc3)c2)[C@@H]1/C=C(\Cl)C(F)(F)F (racemic) [lambda-cyhalothrin]
overall mean percentage of damaged fruit ([1]; foliar): 1.0%
